The text below walks through data of patent US7807713B2, “Pan-antagonists for the androgen receptor and androgen associated with anti-androgen withdrawal” (University of Delaware, priority 2006, dated 2010).

Holding throughout (format): cell-based
One assay deals with T1, hAR(T877A) (Homo sapiens, UniProt P10275, T878A).
T1 construct: expressed in transfected cells; host or cells: CV-1
T1 sequence (P10275 1-920 T878A): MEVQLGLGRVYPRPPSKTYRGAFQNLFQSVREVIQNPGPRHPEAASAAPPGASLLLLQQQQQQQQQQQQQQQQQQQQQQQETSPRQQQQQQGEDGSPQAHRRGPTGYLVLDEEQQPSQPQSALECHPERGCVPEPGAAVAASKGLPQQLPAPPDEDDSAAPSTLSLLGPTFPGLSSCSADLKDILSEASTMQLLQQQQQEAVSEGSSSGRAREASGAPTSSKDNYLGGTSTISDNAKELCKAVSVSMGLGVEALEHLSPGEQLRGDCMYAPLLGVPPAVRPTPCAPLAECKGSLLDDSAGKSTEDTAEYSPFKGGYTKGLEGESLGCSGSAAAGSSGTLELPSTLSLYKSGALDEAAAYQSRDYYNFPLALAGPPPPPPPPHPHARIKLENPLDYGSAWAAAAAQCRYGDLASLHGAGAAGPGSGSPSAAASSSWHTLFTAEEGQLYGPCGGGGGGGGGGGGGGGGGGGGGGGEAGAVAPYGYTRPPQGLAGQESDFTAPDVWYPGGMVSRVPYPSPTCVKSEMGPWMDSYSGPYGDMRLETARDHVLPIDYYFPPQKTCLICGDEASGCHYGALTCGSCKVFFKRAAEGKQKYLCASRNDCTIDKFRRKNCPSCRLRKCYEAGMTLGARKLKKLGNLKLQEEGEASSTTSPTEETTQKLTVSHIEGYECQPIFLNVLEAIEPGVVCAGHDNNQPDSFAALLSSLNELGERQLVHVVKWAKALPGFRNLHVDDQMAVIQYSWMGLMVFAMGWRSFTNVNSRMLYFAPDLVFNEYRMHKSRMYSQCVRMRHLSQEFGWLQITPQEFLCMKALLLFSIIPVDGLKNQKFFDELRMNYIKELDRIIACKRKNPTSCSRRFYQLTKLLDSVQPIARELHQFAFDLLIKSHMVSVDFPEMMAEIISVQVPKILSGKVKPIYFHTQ
The assay is described as follows: Transcription assay (ARE-luciferase reporter, CV-1 cells), mutant androgen receptor T877A. The protocol: (§1) Twenty-four hours prior to transfection, CV-1 cells were seeded at a density of 45,000 cells per well in 24-well cell culture plates and grown in phenol red free Dulbecco's Modified Eagle Medium (DMEM) supplemented with 10% cosmic calf serum (CCS). ARE-luciferase reporter and Renilla-Luc as the internal standard and a […] expression vector encoding the wild-type androgen receptor or mutant androgen receptor were transfected with Lipofectamine (Invitrogen) following manufacturer's protocol. Five hours after transfection, media was added containing the appropriate concentrations of ligands. The cells were allowed to incubate for 38 hours before harvesting by passive lysis buffer. Cell extracts were immediately assayed using the Dual Luciferase Assay (Promega).
(In general: Reporter assays use an easily measured gene product as a stand-in for the process of interest.)

The target of a further assay is T2, hAR(W741C) (Homo sapiens, UniProt P10275, W742C).
T2 construct: expressed in transfected cells; host or cells: CV-1
T2 sequence (P10275 1-920 W742C): T1 sequence (P10275 1-920 T878A) with W742C, A878T
The experiment in a line: Transcription assay (ARE-luciferase reporter, CV-1 cells), mutant androgen receptor W741C. As for the experimental part: as §1

The subject of another assay is LNCaP cells. The experiment in a line: Cell proliferation assay (CyQuant), R1881 induced. The note with it: 8 day ligand treatment ± R1881, FIG. 9. The source says: FIG. 9. LNCaP cell proliferation (CyQuant) after 8 day ligand treatment±R1881. Relative Fluorescence±SEM. (R1881±ligand; P<0.05, one-way ANOVA).
Further evidence that formulae such as PLM1 can act to limit androgen dependent proliferation of prostate cells was obtained by cell proliferation assays as determined using CyQuant® assays, according to manufacturer's instructions (invitrogen).

The next assay addresses T3, hAR(wt) (Homo sapiens, UniProt P10275).
T3 construct: expressed in transfected cells; host or cells: CV-1
T3 sequence (P10275 1-920): T1 sequence (P10275 1-920 T878A) with A878T
The assay is described as follows: Transcription assay (ARE-luciferase reporter, CV-1 cells), wild-type androgen receptor. The protocol:
as §1

By EC50 is commonly meant the concentration giving half of the maximal effect.

Changes are numbered by the printed parent chain. Like-named read-outs stand apart in the source and are kept apart here.

The molecule `CC(O)(CS(=O)(=O)c1ccc(Br)c2ccccc12)C(=O)Nc1ccc(C#N)c(C(F)(F)F)c1` (stereo not drawn) [PLM9, 3-(1-bromonaphthalen-4-ylsulfonyl)-N-(4-cyano-3-(trifluoromethyl)phenyl)-2-hydroxy-2-methylpropanamide] displayed a concentration giving a half-maximal response (EC50) on hAR(T877A) of 0.426 ± 0.072 µM. As to “3-(2-phenylphenylsulfonyl)-N-(4-cyano-3-(trifluoromethyl)phenyl)-2-hydroxy-2-methylpropanamide [PLM4]”, the concentration giving a half-maximal response (EC50) at hAR(W741C) (half maximal activation of reporter gene expression (agonism), '—' = no effect, read-out: hAR(W741C) EC50) came out at 0.033 ± 0.0098 µM.

For the molecule `CC(O)(CS(=O)(=O)c1cccc2ccccc12)C(=O)Nc1ccc(C#N)c(C(F)(F)F)c1` (stereo not drawn) [PLM1, N-(4-cyano-3-(trifluoromethyl)phenyl)-2-hydroxy-2-methyl-3-(naphthalen-1-ylsulfonyl)propanamide], the “inhibiting androgen (R1881) induced proliferation of LNCaP cells” value with LNCaP cells was “at least as potent as biclutamide itself”. For the molecule `CC(O)(CS(=O)(=O)c1cccc(Cc2ccccc2)c1)C(=O)Nc1ccc(C#N)c(C(F)(F)F)c1` (stereo not drawn) [PLM3, 3-(3-benzylphenylsulfonyl)-N-(4-cyano-3-(trifluoromethyl)phenyl)-2-hydroxy-2-methylpropanamide], the EC50 on hAR(W741C) is 0.63 ± 0.067 µM. With `CC(O)(CS(=O)(=O)c1ccccc1Cc1ccccc1O)C(=O)Nc1ccc(C#N)c(C(F)(F)F)c1` (stereo not drawn) [PAN11, N-(4-cyano-3-(trifluoromethyl)phenyl)-2-hydroxy-3-(2-(2-hydroxybenzyl)phenylsulfonyl)-2-methylpropanamide], it took 0.0019 µM to reach a half-maximal effect at hAR(T877A) (EC50). Turning to `CC(O)(CS(=O)(=O)c1ccccc1Cc1cccc(O)c1)C(=O)Nc1ccc(C#N)c(C(F)(F)F)c1` (stereo not drawn) [PAN21, N-(4-cyano-3-(trifluoromethyl)phenyl)-2-hydroxy-3-(2-(3-hydroxybenzyl)phenylsulfonyl)-2-methylpropanamide], on hAR(wt), the EC50 came to 0.0018 µM.
